For six compounds, mortality and pest or weed control results are on record in patent publication US20200404919A1, “USE OF HETEROARYL-TRIAZOLE AND HETEROARYL-TETRAZOLE COMPOUNDS AS PESTICIDES IN PLANT PROTECTION” (Bayer Aktiengesellschaft, priority 2018, published 2020).

Format in all cases: in vivo
For assay [1], the system named is Nilaparvata lugens. The assay can be described thus: Nilaparvata lugens - spray test 1. The settings on record: in Oryza sativa, 96 h, read-out: mortality in %, 500 g/ha, rice plants, after 4 days. The method, boiled down: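 Rice plants (Oryza sativa) were sprayed with the compound preparation in water containing 1000 ppm emulsifier, then infested with brown planthoppers. Percent mortality scored after 4 days (100% = all killed, 0% = none).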

For assay [2], the system named is Nezara viridula. The assay can be described thus: Nezara viridula - spray test 1. The settings on record: in Hordeum vulgare, 96 h, read-out: mortality in %. The method, boiled down:
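Barley plants carrying southern green stink bug larvae were sprayed with compound diluted in water with 1000 ppm emulsifier. Mortality (%) was scored after 4 days.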

The next assay relates to Spodoptera frugiperda. The assay can be described thus: Spodoptera frugiperda - spray test. To be noted: in Zea mays, 168 h, read-out: mortality in %. An outline of the steps:
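Caterpillars are placed on sprayed, dried maize leaf sections. Sprays contain compound diluted in water with emulsifier at 1000 ppm; mortality in % is determined 7 days later.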

Another assay has as its system Tetranychus urticae. The assay can be described thus: Tetranychus urticae - spray test OP-resistant. To be noted: foliar, 144 h, French bean leaf disks, all instars, after 6 days. The method, then:
Tetranychus urticae—Spray Test OP-Resistant
(§1) To produce a suitable preparation of active compound, 1 part by weight of active compound is mixed with the stated amount of solvents and is diluted with water, containing an emulsifier concentration of 1000 ppm, to the desired concentration. Further test concentrations are prepared by dilution with emulsifier containing water.
French bean (Phaseolus vulgaris) leaf disks infected with all instars of the two spotted spidermite (Tetranychus urticae), are sprayed with a preparation of the active ingredient of the desired concentration.
After 6 days mortality in % is determined. 100% means all spider mites have been killed and 0% means none of the spider mites have been killed.

For assay [3], the system named is Myzus persicae. The assay can be described thus: Myzus persicae - spray test. The settings on record: foliar, 120 h, Chinese cabbage leaf disks, all instars, after 5 days. The method, then:
Myzus persicae—Spray Test
as §1
Chinese cabbage (Brassica pekinensis) leaf disks infected with all instars of the green peach aphid (Myzus persicae), are sprayed with a preparation of the active ingredient of the desired concentration.
After 5 days mortality in % is determined. 100% means all aphids have been killed and 0% means none of the aphids have been killed.

The subject of another assay is Aphis gossypii. Kind of assay: Aphis gossypii - oral test. The settings on record: 120 h, read-out: mortality in %. The method, boiled down:
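Mixed-population cotton aphids feed through parafilm on compound (acetone stock diluted in water) mixed with IPL41 insect medium containing sugar. Mortality (%) scored after 5 days.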

The test system of assay [4] is Nilaparvata lugens. Kind of assay: Nilaparvata lugens - spray test 2. The settings on record: 96 h, rice plants, larvae, after 4 days. The method, then:
Nilaparvata lugens —Spray Test 2
To produce a suitable preparation of active compound, 1 part by weight of active compound is mixed with the stated amount of solvents and is diluted with water, containing an emulsifier concentration of 1000 ppm, to the desired concentration. Further test concentrations are prepared by dilution with emulsifier containing water. Ammonium salt and/or penetration enhancer in a dosage of 1000 ppm are added to the desired concentration if necessary.
Rice plants (Oryza sativa) are treated by being sprayed with the desired concentration of the active compound and are infested with larvae of the brown planthopper (Nilaparvata lugens).
After 4 days mortality in % is determined. 100% means all planthoppers have been killed and 0% means none of the planthoppers have been killed.

Assay [5] deals with Myzus persicae. The assay can be described thus: Myzus persicae - oral test. The settings on record: 120 h, read-out: mortality in %. An outline of the steps:
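Mixed-population green peach aphids fed through parafilm on compound diluted in water plus IPL41 insect medium (33%+15% sugar). Mortality (%) scored after 5 days, 100% meaning all aphids killed.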

In assay [6] the test system is Nezara viridula. The assay can be described thus: Nezara viridula - spray test 2. The settings on record: 96 h, barley plants, larvae, after 4 days. The method, then:
Nezara viridula—Spray Test 2
To produce a suitable preparation of active compound, 1 part by weight of active compound is mixed with the stated amount of solvent, and the concentrate is diluted with water, containing an emulsifier concentration of 1000 ppm, to the desired concentration. Ammonium salt and/or penetration enhancer in a dosage of 1000 ppm are added to the desired concentration if necessary.
Barley plants (Hordeum vulgare) infested with larvae of the southern green stink bug (Nezara viridula) are sprayed with a test solution containing the desired concentration of the active ingredient.
After 4 days mortality in % is determined. 100% means all the stink bugs have been killed; 0% means none of the stink bugs have been killed.

For the next assay, the system named is Diabrotica balteata. The assay can be described thus: Diabrotica balteata - spray test. To be noted: 168 h, 160 μg/well, germinated wheat seeds, larvae, after 7 days, read-out: efficacy in %. An outline of the steps: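 Wheat seeds germinated 1 day on agar were sprayed with compound diluted in water with 1000 ppm emulsifier, then infested with 10-20 Diabrotica balteata larvae. Efficacy in % scored after 7 days: 100% = seedlings grown as untreated, uninfected control; 0% = no seedlings grown.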

For the next assay, the system named is Phaedon cochleariae. Kind of assay: Phaedon cochleariae - spray test. To be noted: in Brassica rapa, foliar, 168 h, read-out: mortality in %. The method, boiled down:
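Chinese cabbage leaf disks sprayed with compound diluted in water containing 1000 ppm emulsifier, then infested with mustard beetle larvae once dry. Mortality in % scored after 7 days (100% = all larvae killed, 0% = none).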

Another assay relates to Culex quinquefasciatus. The assay can be described thus: Culex test (CULXFAS surface treatment & contact assay). To be noted: 30 minutes exposure, 24 hours after contact, read-out: efficacy (mortality in percent); for mortality at 4 mg/m2: surface concentration 4 mg/m^2, glazed tile; for mortality at 20 mg/m2: surface concentration 20 mg/m^2, glazed tile; for mortality at 100 mg/m2: surface concentration 100 mg/m^2, glazed tile. The method, boiled down:
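Test compound dissolved in acetone + 2000 ppm rapeseed oil methyl ester, applied to glazed tile and acetone evaporated; adult mosquitoes exposed on dried surface for 30 minutes. Mortality (%) scored 24 hours after contact; 100% = all insects dead, 0% = none dead.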

The test system of a further assay is Meloidogyne incognita. Kind of assay: Meloidogyne incognita - test. The settings on record: 336 h, salad seedlings in sand, after 14 days, read-out: nematicidal activity (percentage of gall formation). An outline of the steps:
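Compound taken up in acetone and diluted with water, then applied to sand with M. incognita eggs and larvae plus salad seeds. Gall formation on roots scored after 14 days: 100% means no galls, 0% equals untreated control.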

Assay [7] deals with Aedes aegypti strain MONHEIM. Kind of assay: Aedes test (AEDSAE surface treatment & contact assay). The settings on record: 30 minutes exposure, 24 hours after contact, read-out: efficacy (mortality in percent); for mortality at 4 mg/m2: surface concentration 4 mg/m^2, glazed tile; for mortality at 20 mg/m2: surface concentration 20 mg/m^2, glazed tile; for mortality at 100 mg/m2: surface concentration 100 mg/m^2, glazed tile. The method, boiled down:
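Compound in acetone plus 2000 ppm RME applied to glazed tile; after acetone evaporation, adult mosquitoes held on dried surface for 30 minutes. Percent mortality scored 24 hours after contact.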

The test system of assay [8] is Anopheles funestus strain FUMOZ-R. Kind of assay: Anopheles test (ANPHFU surface treatment & contact assay). The settings on record: 30 minutes exposure, 24 hours after contact, read-out: efficacy (mortality in percent); for mortality at 4 mg/m2: surface concentration 4 mg/m^2, glazed tile; for mortality at 20 mg/m2: surface concentration 20 mg/m^2, glazed tile; for mortality at 100 mg/m2: surface concentration 100 mg/m^2, glazed tile. The source says: Anopheles Test (ANPHFU Surface Treatment & Contact Assay)
Solvent: Acetone+2000 ppm rapeseed oil methyl ester (RME)
In order to produce a sufficient, active ingredient containing solution it is necessary to solve the test-compound in an acetone/RME solvent mixture. This solution is pipetted onto a glazed tile and after evaporation of the acetone, adult mosquitoes of the species Anopheles funestus strain FUMOZ-R (Hunt et al., Med Vet Entomol. 2005 Sep. 19(3):271-5) are placed onto the dried surface. The exposure time is 30 minutes.
Mortality in percent (%) is determined 24 hours after contact to the treated surface. 100% mortality means that all test-insects are dead, whereas 0% means that not a single insect died.

Assay [9] has as its system Musca domestica strain WHO-N. Kind of assay: Musca domestica test (MUSCDO surface treatment & contact assay). The settings on record: 30 minutes exposure, 24 hours after contact, read-out: efficacy (mortality in percent). The method, boiled down: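 Compound in acetone with 2000 ppm rapeseed oil methyl ester applied to glazed tile; after acetone evaporation, adult Musca domestica WHO-N flies exposed on dried surface for 30 minutes. Mortality (%) assessed 24 hours after contact.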

As for `CC(c1ncnn1-c1ncccn1)N(CC#N)C(=O)c1cc(Cl)cc(C(F)(F)F)c1` (stereo not drawn) [Compound I-96], the mortality at 500 g/ha in the assay on Nilaparvata lugens [1] was determined as 100%; in the assay on Nezara viridula [2], 100%; with Spodoptera frugiperda, 100%; in the assay with Tetranychus urticae, 90%; in the assay on Myzus persicae [3], 90%.

With `CC(c1ncnn1-c1ncccn1)N(CC1CC1)C(=O)c1cc(Cl)cc(C(F)(F)F)c1` (stereo not drawn) [Compound I-40, 3-chloro-N-(cyclopropylmethyl)-N-[1-(2-pyrimidin-2-yl-1,2,4-triazol-3-yl)ethyl]-5-(trifluoromethyl)benzamide], the mortality at 100 ppm in the assay on Aphis gossypii amounted to 100%. For the same compound, the mortality at 500 g/ha is 100% in the assay on Nilaparvata lugens [1]; 100% in the assay with Nezara viridula [2]; 100% with Nilaparvata lugens [4]; 100% in the assay on Spodoptera frugiperda; 90% with Myzus persicae [3]; 100% in the assay on Nezara viridula [6]. Besides, the mortality at 500 g/ha in the assay on Phaedon cochleariae was determined as 100%. Further, in the assay with Myzus persicae [5], the mortality at 20 ppm came out at 100%. In the assay on Diabrotica balteata, the pest or weed control at 160 µg/disc, 160 µg/well is 100%.

`CC(NC(=O)c1cc(Cl)cc(C(F)(F)F)c1)c1ncnn1-c1ncccn1` (stereo not drawn) [Compound I-76]: the mortality at 100 ppm in the assay on Aphis gossypii was found to be 100%. Moreover, the mortality at 500 g/ha in the assay on Nilaparvata lugens [1], in the assay with Nezara viridula [2], with Nilaparvata lugens [4], in the assay on Spodoptera frugiperda, in the assay on Nezara viridula [6] and with Phaedon cochleariae was 100% each time. Also, the mortality at 20 ppm in the assay on Myzus persicae [5] worked out at 100%. Moreover, the pest or weed control at 160 µg/disc, 160 µg/well in the assay on Diabrotica balteata stood at 100%.

Consider `C[C@@H](c1ncnn1-c1ncccn1)N(CC1CC1)C(=O)c1cc(Cl)cc(C(F)(F)F)c1` [Compound I-93, 3-chloro-N-(cyclopropylmethyl)-N-[(1S)-1-(2-pyrimidin-2-yl-1,2,4-triazol-3-yl)ethyl]-5-(trifluoromethyl)benzamide], for which the mortality at 100 ppm in the assay on Aphis gossypii stood at 100%. Also, the mortality at 500 g/ha in the assay with Nilaparvata lugens [1], with Nilaparvata lugens [4], with Spodoptera frugiperda, in the assay on Myzus persicae [3], with Nezara viridula [6] and in the assay with Phaedon cochleariae was 100% throughout. Moreover, the mortality at 4 mg/m2 (in the assay with Culex quinquefasciatus; in [7]; in [8]) was 80 to 100% throughout. Besides, the mortality at 20 mg/m2 (in the assay with Culex quinquefasciatus; in [7]; in assay [8]) was 80 to 100% each time. In addition, the mortality at 100 mg/m2 (in the assay on Culex quinquefasciatus; in [7]; in assay [8]) was 80 to 100% each time. Also, the mortality at 20 ppm with Myzus persicae [5] amounted to 100%. For the same compound, in the assay on Meloidogyne incognita, the pest or weed control at 20 ppm was determined as 100%. For the same compound, in the assay on Diabrotica balteata, the pest or weed control at 160 µg/disc, 160 µg/well was found to be 100%.

For `CC(c1ncnn1-c1ncccn1)N(CC(F)F)C(=O)c1cccc(C(F)(F)F)c1` (stereo not drawn) [Compound I-123], the mortality at 500 g/ha with Nilaparvata lugens [1] was determined as 100%; in the assay with Nezara viridula [2], 100%; with Spodoptera frugiperda it was 100%; in the assay on Tetranychus urticae, 100%; in the assay with Myzus persicae [3] it was 90%.

As for `C[C@H](NC(=O)c1cc(Cl)cc(C(F)(F)F)c1)c1ncnn1-c1ncccn1` [Compound I-113, 3-chloro-N-[(1S)-1-(2-pyrimidin-2-yl-1,2,4-triazol-3-yl)ethyl]-5-(trifluoromethyl)benzamide], the mortality at 100 ppm with Aphis gossypii was 100%. Also, the mortality at 500 g/ha with Nilaparvata lugens [1], in the assay with Nezara viridula [2], with Spodoptera frugiperda and with Phaedon cochleariae was 100% each time. The mortality at 4 mg/m2 lay within 80 to 100% in the assay on Culex quinquefasciatus; 80 to 100% in assay [7]; 80 to 100% in assay [8]; 80 to 100% in assay [9] (surface concentration 4 mg/m^2, glazed tile). Besides, the mortality at 20 mg/m2 in the assay on Culex quinquefasciatus was in the range of 80 to 100%; in [7], 80 to 100%; in assay [8], 80 to 100%; in [9] (surface concentration 20 mg/m^2, glazed tile), 80 to 100%. Further, the mortality at 100 mg/m2 (in the assay on Culex quinquefasciatus; in assay [7]; in assay [8]) was 80 to 100% throughout. In the assay on Myzus persicae [5], the mortality at 20 ppm amounted to 100%. Also, the pest or weed control at 160 µg/disc, 160 µg/well in the assay with Diabrotica balteata stood at 100%.
